What was measured:
[1] = tested on: rat TH promoter; assay: Chromatin immuno-precipitation (ChIP) at the TH promoter in VM precursor cultures; format: cell-based
Method: VM precursor cultures were treated with 1 μM UCN for about 1 to 2 days. VM cells for ChIP from rat embryos, the pregnant rats on day 12.5 of gestation were intra-peritoneally injected with saline as control or 10 μg/kg UCN as treatment every 24 h for 3 days before sacrifice. The ventral mesencephalon from E15.5 embryos was dissected. Cells were cross-linked with 1% formaldehyde, and stored at −80° C. before use.
Chromatin immuno-precipitation (ChIP) assays were performed using SimpleChIP® Enzymatic Chromatin IP kit (Cell Signaling Technology, Beverly, Mass.) by the instruction of the kit. Briefly, cross-linked chromatin in the cells was enzymatic digested to generate fragments with a length of approximately 150-900 bp (1 to 5 nucleosomes). The chromatin was subjected to immuno-precipitation using the following antibodies: anti-Nurr1 (Santa Cruz), anti-acetyl histone H3 (Ac-H3), anti-HDAC1, anti-CoREST (all from Upstate Biotechnology), anti-MeCP2 (Chemicon,), anti-Foxa2 (Cell signaling Technology), anti-Pitx3, and IgG (both from Abcam). Immuno-precipitated DNA fragments were collected by protein G magnetic beads. DNA/protein complexes were eluted from the beads and reverse cross-linked at 65° C. for 2 h in the presence of proteinase K. Purified DNA were subjected to real-time PCR using primers specific to rat TH promoter loci (referring to Table 2). The abundance of the immuno-precipitated DNA in a sample was normalized to the amount of signal in the input DNA. The values of the control samples were set to 1.0.

[2] = tested on: VM precursor cultures; assay: Real-time RT-PCR analysis of VM precursor cultures; format: cell-based, rat; details: 1.25 mM SB, 3 days
[3] = tested on: TH promoter in Nurr1-transfected cortical NPCs; assay: TH promoter assay (pAAV-Nurr1 and pTH6.0-GL3) in cortical NPCs; format: cell-based, rat; details: 24 hours
Excerpt: The luciferase reporter vector pTH6.0-GL3 constructed by engineering the 6.0 kb upstream sequences of the rat TH (TH6.0) gene into pGL3 was kindly provided by Dr. Kwang-Soo Kim (Harvard Medical School, Belmont, Mass.). Vector expressing Nurr1 (mouse) was constructed by inserting the respective cDNA into pAAV-MCS vector (pAAV-Nurr1), in which the cloned gene is designed to be expressed under the control of the cytomegalovirus (CMV) immediate-early promoter. pTH6.0-GL3 alone or combined with pAAV-Nurr1 were transfected into a human neuro-blastoma SH-SY5Y cell line or cortical NPCs, respectively, using Lipofectamine 2000 (Invitrogen) according to the protocol of the manufacturer. For determine the effect of MeCP2-CoREST-HDAC1 repressor complex on TH promoter activity, the SH-SY5Y cells were double transfected with pTH6.0-GL3 and pCMV6-Entry-Mecp2 (Flag-tagged MeCP2)/or pCMV6-Entry-Rcor1 (Flag-tagged CoREST) (both from OriGene Technologies, Rockville, Md.)/or pK7-HDAC1-GFP (Addgene). […] Luciferase activity of cell lysates was determined luminometrically by the luciferase assay system (Promega, Madison, Wis.) as specified by the manufacturer. Luciferase activity was normalized to the protein content of the extracts. Relative luciferase activity was determined to reflect promoter activity of TH, expressed as the fold increase relative to the activity of control or untreated mock control.

[4] = tested on: VM of E16.5 rat embryos; assay: In vivo DA neuron differentiation in VM of rat embryos (immuno-histochemistry)
Method: The pregnant rats on day 12.5 of gestation were intra-peritoneally injected with saline or 10 μg/kg UCN every 24 hours for 3 days (FIGS. 7H & 7I) or 4 days (FIGS. 7A, 7B, & 7E-7G) before sacrifice. FIG. 7A is an image of immuno-staining against TH of rat E16.5 mesencephalon. FIG. 7B is cell counting analysis of TH^+ cells in the VM of E16.5 saline and UCN-treated embryos (**p<0.01 compared with saline group). […] FIGS. 7H and 7I show histone H3 acetylation (H) and Nurr1 recruitments (I) at the TH promoter by ChIP analyses which were performed with chromatin prepared from E15.5 VM tissue of saline or UCN-treated embryos (*p<0.05; **p<0.01 compared with saline groups). Con: control medium.
For immuno-histochemistry, rat embryos were perfused with 4% paraformaldehyde, cryopreserved with 30% sucrose in PBS overnight, embedded in Tissue Tek OCT compound (Sakura Finetek, Torrance, Calif.), and then frozen at −80° C. For Nurr1 staining, the embryos were perfused with 4% paraformaldehyde/0.15% picric acid followed by soaking in the same solution overnight at 4° C. Coronal sections (16 μm thick) were blocked with 2% FBS and 3% normal goat or normal donkey serum for 1 h at room temperature, and subsequently incubated with primary antibodies overnight at room temperature. Primary antibodies were rabbit anti-Lmx1b (1:3000), guinea-pig anti-Lmx1b (1:1500), rabbit anti-UCN (1:200), goat anti-CRHR1 (1:100), rabbit anti-CRHR2 (1:250), mouse anti-Nurr1 (1:100), rabbit anti-Nurr1 (1:100), and mouse anti-TH (1:2000). After washing with PBS, secondary antibodies conjugated to the FITC or rhodamine were applied to sections for 1 h. Sections were examined with fluorescent microscope or confocal microscope. Quantitative cell counts were performed in every third section through the entire A9-A10 populations in 5-10 embryos per condition.

[5] = tested on: VM precursor cultures; assay: DA uptake assay in VM precursor cultures; format: cell-based, rat; details: 1 μM UCN, 4 days
Method: For DA uptake assay, cells were washed twice with warm Krebs-Ringer buffer (16 mM sodium phosphate, 119 mM NaCl, 4.7 mM KCl, 1.8 mM CaCl2, 1.2 mM MgSO4, 1.3 mM EDTA and 5.6 mM glucose, pH 7.4), and then incubated with 1 μM [^3H]-dopamine(DA)(60 Ci/mmol, PerkinElmer) in Krebs-Ringer buffer at 37° C. for 20 min. After washing with ice-cold Krebs-Ringer buffer, cells were collected in 1 N NaOH and radioactivity was counted with a liquid scintillation counter. Non-specific uptake was determined in parallel wells that received both the tritiated tracer and 10 μM mazindol. The specific [^3H] DA were calculated by subtracting the amount of radioactivity obtained in the presence of mazindol from that obtained in the absence of mazindol.

[6] = SB, compared with the UCN effect

Compound	Nurr1 recruitment at the TH promoter [1, 6]	histone acetylation at the TH promoter [1, 6]	TH mRNA expression [2]	TH promoter activity ([3]; 0.5 mM SB)	Nurr1 protein occupancy at the TH promoter ([1]; 1 μM UCN, 2 days)	CoREST binding in the TH promoter regions ([1]; UCN)	Foxa2 occupancy at Nurr1 binding sites of TH promoter ([1]; UCN)	HDAC1 recruitment at the TH promoter ([1]; UCN)	histone H3 acetylation at TH promoter regions ([1]; UCN)	MeCP2 recruitment to the TH promoter ([1]; UCN, Nurr1-binding sites and repeated CpGs)	proportion of TH+/Nurr1+ cells in the VM ([4]; UCN treated vs saline-treated embryos, E16.5)	number of ventral mesencephalic TH+ cells ([4]; pregnant rats, 10 μg/kg UCN i.p. every 24 hours for 4 days, E16.5 embryos)	Nurr1+ cell numbers in the VM ([4]; saline vs UCN-treated embryos, E16.5)	TH promoter activity (relative luciferase activity) ([3]; 1 μM UCN)	DAT-mediated specific DA uptake [5]
CCCC(=O)[O-].[Na+] [SB, sodium butyrate, reference compound]	mimicked	mimicked	markedly upregulated	increase TH promoter activity											
Urocortin [UCN]					significantly increased	decreased CoREST binding	increases	significantly reduced	significantly increased	significantly reduced	significant proportion of the Nurr1+ cells differentiate into TH+ neurons	increased number	no significant difference	activation of the TH promoter	significantly enhanced
